Reference: US10301272B2, “Carboxamide or sulfonamide substituted thiazoles and related derivatives as modulators for the orphan nuclear receptor ROR[γ]” (Phenex Pharmaceuticals AG, priority 2012, dated 2019)
Like-named read-outs stand apart in the source and are kept apart here.

Biological target: RORγ (Homo sapiens, UniProt P51449)
Assay: RORγ Gal4 Reporter Gene Assay
Assay type: cell-based
Experimental: Determination of a ligand mediated Gal4 promoter driven transactivation to quantify ligand binding to RORγ was performed as follows: DNA encoding three different RORγ protein fragments was cloned into vector pCMV-BD (Stratagene). Expression was under control of a CMV promoter and as fusion to the DNA-binding domain of the yeast protein GAL4. Other vectors used were pFR-Luc (Stratagene) as regulated reporter plasmid. pFR-Luc contains a synthetic promoter with five tandem repeats of the yeast GAL4 binding sites that control expression of the Photinus pyralis (American firefly) luciferase gene. In order to improve experimental accuracy the plasmid pRL-CMV was cotransfected. pRL-CMV contains the constitutive CMV promoter, controlling the expression of the Renilla reniformis luciferase.
The medium is supplemented with 10% fetal bovine serum, 0.1 mM nonessential amino acids, 1 mM sodium pyruvate, 1% Glutamax and 100 units Penicilin/[…] per mL at 37° C. in 5% CO2.
For the assay, […] were plated per well in 96 well plates in 100 μL per well, incubated over night at 37° C. in 5% CO2. […] About 4 h after addition of the transfection solution, fresh Minimal Essential Medium (MEM, same composition as used for plating cells, but without serum) was added. Then compound stocks, prediluted in MEM (same composition as used for plating cells) were added (final vehicle concentration not exceeding 0.1%).
All experiments were done at least in triplicates.

Chain of RORγ (P51449 whole entry, looked up, the tested form may be a part): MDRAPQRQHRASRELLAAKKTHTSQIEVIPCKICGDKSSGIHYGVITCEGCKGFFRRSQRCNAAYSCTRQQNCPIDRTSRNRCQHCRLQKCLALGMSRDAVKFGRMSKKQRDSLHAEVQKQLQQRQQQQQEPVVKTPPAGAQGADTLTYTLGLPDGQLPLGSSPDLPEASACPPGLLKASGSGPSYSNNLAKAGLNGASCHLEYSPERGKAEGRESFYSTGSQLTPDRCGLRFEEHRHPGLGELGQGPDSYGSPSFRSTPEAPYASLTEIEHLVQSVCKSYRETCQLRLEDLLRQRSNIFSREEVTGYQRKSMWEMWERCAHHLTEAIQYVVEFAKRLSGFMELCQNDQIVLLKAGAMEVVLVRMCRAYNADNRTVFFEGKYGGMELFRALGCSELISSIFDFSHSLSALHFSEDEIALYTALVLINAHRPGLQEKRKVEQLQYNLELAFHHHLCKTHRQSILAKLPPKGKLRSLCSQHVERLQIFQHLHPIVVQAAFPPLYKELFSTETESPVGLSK

pIC50 (FF) (firefly (FF) luciferase, 293T cells) | pIC50 (REN) (renilla normalised (RENnorm) luciferase, 293T cells) | SMILES | pIC50 (FF) | pIC50 (REN)
 |  | CC1CCN(C(=O)c2nc(C(=O)NCC(C)(C)O)sc2-c2ccc(S(=O)(=O)NC3(C)CCC3)c3ccccc23)CC1 [304/26] | nt/8.0/7.9 | nt/8.0/7.9
 |  | CC1CCN(C(=O)c2nc(C(=O)NCC(C)(C)O)sc2-c2ccc(S(=O)(=O)NC3(C)CC3)c3ccccc23)CC1 [304/27] | nt/7.6/7.5 | nt/7.6/7.5
nt/6.1/6.1 | nt/6.1/6.1 | CC(C)(C)c1cc(-c2nc(C(=O)N[C@H]3C[C@H](C(=O)O)C3)sc2CC2CCCCC2)cc(C2(C)CC2)c1 [Example 25, trans-3-(4-(3-(tert-Butyl)-5-(1-methylcyclopropyl)phenyl)-5-(cyclohexylmethyl)thiazole-2-carboxamido)cyclobutanecarboxylic acid] |  | 
 |  | CC(C)(C)NS(=O)(=O)c1ccc(-c2nc(C(=O)N[C@H]3C[C@H](C(=O)O)C3)sc2CC2CCCCC2)c2ccccc12 [Example 25/1] | nt/8.9/8.8 | nt/8.9/8.8
 |  | CCC(C)(C)NS(=O)(=O)c1ccc(-c2sc(C(=O)NC3CCS(=O)(=O)CC3)nc2C(=O)N2CCC(C)CC2)c(Cl)c1C [Example 301, 5-(2-Chloro-3-methyl-4-(N-(tert-pentyl)sulfamoyl)phenyl)-N-(1,1-dioxidotetrahydro-2H-thiopyran-4-yl)-4-(4-methylpiperidine-1-carbonyl)thiazole-2-carboxamide] | nt/7.8/7.9 | nt/7.8/7.9
 |  | CCC(C)(C)NS(=O)(=O)c1ccc(-c2sc(C(=O)NCC(C)(C)O)nc2C(=O)N2CCC(C)CC2)c(Cl)c1C [Example 301/1] | nt/8.5/8.5 | nt/8.5/8.5
 |  | CCC(C)(C)NS(=O)(=O)c1ccc(-c2sc(C(=O)N[C@H]3C[C@H](C(=O)O)C3)nc2C(=O)N2CCC(C)CC2)c(Cl)c1C [Example 302, trans-3-(5-(2-Chloro-3-methyl-4-(N-(tert-pentyl)sulfamoyl)phenyl)-4-(4-methylpiperidine-1-carbonyl)thiazole-2-carboxamido)cyclobutanecarboxylic acid] | nt/7.3/7.5 | nt/7.3/7.5
 |  | CCC(C)(C)NS(=O)(=O)c1ccc(-c2sc(C(=O)NCc3ncc(S(C)(=O)=O)s3)nc2C(=O)N2CCC(C)CC2)c(Cl)c1C [Example 303, 5-(2-Chloro-3-methyl-4-(N-(tert-pentyl)sulfamoyl)phenyl)-4-(4-methylpiperidine-1-carbonyl)-N-((5-(methylsulfonyl)thiazol-2-yl)methyl)thiazole-2-carboxamide] | nt/7.7/7.7 | nt/7.7/7.7
 |  | CC(C)(O)CNC(=O)c1nc(C(F)F)c(-c2ccc(S(=O)(=O)NC(C)(C)C)c3ccccc23)s1 [Example 305, 5-(4-(N-(tert-butyl)sulfamoyl)naphthalen-1-yl)-4-(difluoromethyl)-N-(2-hydroxy-2-methylpropyl)thiazole-2-carboxamide] | nt/6.6/7.2 | nt/6.6/7.2
 |  | CC1CCN(C(=O)c2nc(C(=O)N3CC4(CCS(=O)(=O)CC4)C3)oc2-c2ccc(S(=O)(=O)NC(C)(C)C)c3ccccc23)CC1 [Example 306, N-(tert-Butyl)-4-(2-(7,7-dioxido-7-thia-2-azaspiro[3.5]nonane-2-carbonyl)-4-(4-methyl-piperidine-1-carbonyl)oxazol-5-yl)naphthalene-1-sulfonamide] | nt/5.6/5.6 | nt/5.6/5.6
 |  | CC(C)(C)NS(=O)(=O)c1ccc(-c2sc(C(=O)N[C@H]3C[C@H](C(=O)O)C3)cc2CC2CCCCC2)c2ccccc12 [Example 307, trans-3-(5-(4-(N-(tert-Butyl)sulfamoyl)naphthalen-1-yl)-4-(cyclohexylmethyl)thiophene-2-carboxamido)cyclobutanecarboxylic acid] | nt/8.2/8.3 | nt/8.2/8.3
 |  | CC(C)(C)NS(=O)(=O)c1ccc(-c2sc(C(=O)NC3CCS(=O)(=O)CC3)cc2CC2CCCCC2)c2ccccc12 [Example 307/1] | nt/8.4/8.5 | nt/8.4/8.5
